Test results taken from ChEMBL document CHEMBL1201862, “PubChem BioAssay data set” (2004).
Activity calls are given as the source filed them.

What was measured:
[1] = biological target: Cyclin-dependent kinase 9 (Homo sapiens, UniProt P50750); assay type: functional;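 further: value from the CDK9 entry of a kinome-spanning kinase panel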
[2] = biological target: Serine/threonine-protein kinase PLK1 (Homo sapiens, UniProt P53350); assay type: functional;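 further: PLK1 measured as one member of a kinome-wide profiling panel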
[3] = biological target: Protein kinase C theta type (Homo sapiens, UniProt Q04759); test: Navigating the Kinome. Panel member name: PRKCQ; assay type: functional
[4] = biological target: Vascular endothelial growth factor receptor 2 (Homo sapiens, UniProt P35968); assay type: functional
[5] = biological target: Cyclin-dependent kinase 19 (Homo sapiens, UniProt Q9BWU1); test: Navigating the Kinome. Panel member name: CDC2L6; assay type: functional
[6] = biological target: Platelet-derived growth factor receptor beta (Homo sapiens, UniProt P09619); assay type: functional;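 further: value comes from a kinome panel, with PDGFRB tested as one panel member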
[7] = biological target: RAC-gamma serine/threonine-protein kinase (Homo sapiens, UniProt Q9Y243); assay type: functional
[8] = biological target: Insulin receptor (Homo sapiens, UniProt P06213); assay type: functional;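 further: insulin receptor kinase tested as one member of a kinome-wide kinase panel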
[9] = biological target: Serine/threonine-protein kinase PLK4 (Homo sapiens, UniProt O00444); assay type: functional;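 further: PLK4 measured as one member of a kinome-wide kinase profiling panel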
[10] = biological target: cAMP-dependent protein kinase catalytic subunit alpha (Homo sapiens, UniProt P17612); assay type: functional
[11] = biological target: Aurora kinase B (Homo sapiens, UniProt Q96GD4); assay type: functional
[12] = biological target: Dual specificity tyrosine-phosphorylation-regulated kinase 1A (Homo sapiens, UniProt Q13627); assay type: functional;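 further: measured against DYRK1A as one member of a broad kinome profiling panel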
[13] = biological target: Aurora kinase A (Homo sapiens, UniProt O14965); assay type: functional;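 further: value from the Navigating the Kinome kinase panel profiling, panel entry STK6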
[14] = biological target: Fibroblast growth factor receptor 1 (Homo sapiens, UniProt P11362); assay type: functional
[15] = biological target: Serine/threonine-protein kinase Chk1 (Homo sapiens, UniProt O14757); assay type: functional;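 further: measured as one member of a kinome-wide kinase profiling panel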
[16] = biological target: Serine/threonine-protein kinase pim-3 (Homo sapiens, UniProt Q86V86); assay type: functional;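 further: value obtained as one member of a broad kinase panel profiling effort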
[17] = biological target: T1, Receptor-type tyrosine-protein kinase FLT3 (Homo sapiens, UniProt P36888); assay type: functional;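 further: FLT3 was tested as one member of a kinome-wide kinase panel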
T1 sequence (P36888 whole entry): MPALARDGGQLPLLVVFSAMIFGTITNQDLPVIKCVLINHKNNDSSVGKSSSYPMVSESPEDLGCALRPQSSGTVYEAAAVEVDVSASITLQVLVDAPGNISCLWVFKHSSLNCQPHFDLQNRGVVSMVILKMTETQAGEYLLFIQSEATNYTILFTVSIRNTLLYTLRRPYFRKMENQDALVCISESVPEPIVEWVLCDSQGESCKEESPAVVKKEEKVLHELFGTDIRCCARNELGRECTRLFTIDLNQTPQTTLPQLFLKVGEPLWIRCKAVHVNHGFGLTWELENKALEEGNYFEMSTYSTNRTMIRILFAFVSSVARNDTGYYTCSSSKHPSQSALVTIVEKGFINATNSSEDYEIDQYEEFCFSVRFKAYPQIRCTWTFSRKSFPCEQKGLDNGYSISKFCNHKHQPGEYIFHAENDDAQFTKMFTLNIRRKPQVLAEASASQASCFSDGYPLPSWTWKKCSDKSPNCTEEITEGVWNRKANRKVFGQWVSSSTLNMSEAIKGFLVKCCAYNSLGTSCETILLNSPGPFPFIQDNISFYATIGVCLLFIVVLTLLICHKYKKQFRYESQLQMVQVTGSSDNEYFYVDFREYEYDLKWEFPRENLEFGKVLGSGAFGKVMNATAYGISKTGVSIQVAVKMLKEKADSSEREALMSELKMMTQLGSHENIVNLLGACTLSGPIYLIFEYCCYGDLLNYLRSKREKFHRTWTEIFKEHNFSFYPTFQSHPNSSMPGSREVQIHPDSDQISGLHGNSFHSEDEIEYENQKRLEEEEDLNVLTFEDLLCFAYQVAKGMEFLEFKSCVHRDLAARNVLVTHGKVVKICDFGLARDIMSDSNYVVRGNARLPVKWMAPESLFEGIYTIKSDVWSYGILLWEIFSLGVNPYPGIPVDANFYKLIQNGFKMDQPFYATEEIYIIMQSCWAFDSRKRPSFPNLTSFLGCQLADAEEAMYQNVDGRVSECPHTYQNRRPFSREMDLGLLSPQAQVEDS

[18] = biological target: Serine/threonine-protein kinase pim-1 (Homo sapiens, UniProt P11309); assay type: functional
[19] = biological target: Serine/threonine-protein kinase PLK3 (Homo sapiens, UniProt Q9H4B4); assay type: functional
[20] = biological target: RAC-alpha serine/threonine-protein kinase (Homo sapiens, UniProt P31749); assay type: functional;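 further: AKT1 affinity measured as one member of a kinome-wide kinase profiling panel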
[21] = biological target: Macrophage colony-stimulating factor 1 receptor (Homo sapiens, UniProt P07333); assay type: functional;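 further: value comes from the Navigating the Kinome screening panel, CSF1R member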
[22] = biological target: Beta-galactosidase (Escherichia coli, UniProt Q8VNN2); test: detection-enzyme interference by beta-gal modulators – biochemical, E. coli enzyme, set 3, artefact control for CCR6 antagonist project, dose response (AID 504712); assay type: functional
[23] = MIN6 cell viability loss – mouse insulinoma, cytotoxicity control, dose response (AID 2122); assay type: functional;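 further: confirmatory high-throughput counterscreen run to flag cytotoxic compounds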
[24] = cAMP pathway inhibition in counterscreen cell line – TR-FRET cAMP detection, counter-screen for MC4R biased antagonist project, dose response (AID 602305); assay type: functional, cell-based;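 further: U2OS cells stimulated with forskolin near its EC80 as the cAMP inducer; potency is for inhibition of forskolin-stimulated cAMP signaling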
[25] = biological target: Heat shock protein HSP 90-alpha (Homo sapiens, UniProt P07900); assay type: functional, organism-based
[26] = biological target: Beta-2 adrenergic receptor (Homo sapiens, UniProt P07550); test: ADRB2 activation measured by internalization – cell-based, FAP fluorogen, flow cytometry, cherry pick 1, dose response (AID 588763); assay type: functional
[27] = biological target: C-C chemokine receptor type 6 (Homo sapiens, UniProt P51684); test: antagonism of CCR6 beta-arrestin recruitment – cell-based, luminescent beta-arrestin readout, dose response (AID 504728); assay type: functional
[28] = reduction of Shn3 3'UTR-driven luciferase in osteoblasts – cell-based, Clone20 osteoblasts, firefly luciferase, cherry-picked, dose response (AID 624132); assay type: functional;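 further: firefly luciferase luminescence from reporter carrying the Shn3 3'UTR in osteoblasts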
[29] = HPDE-C7 pancreatic duct cell viability loss – fluorescence, HTS (AID 430); assay type: functional, cell-based; settings: Homo sapiens
[30] = viability loss of HPDE-C7K cells – cell-based, fluorescence, HTS, primary screen (AID 431); assay type: functional; settings: Homo sapiens
[31] = biological target: T2, Replicative DNA helicase DnaB (Mycobacterium tuberculosis, UniProt P9WMR3); test: DnaB intein splicing inhibitors, dose response, biochemical, cell-free fluorescence (AID 449749); assay type: functional
T2 sequence (P9WMR3 whole entry): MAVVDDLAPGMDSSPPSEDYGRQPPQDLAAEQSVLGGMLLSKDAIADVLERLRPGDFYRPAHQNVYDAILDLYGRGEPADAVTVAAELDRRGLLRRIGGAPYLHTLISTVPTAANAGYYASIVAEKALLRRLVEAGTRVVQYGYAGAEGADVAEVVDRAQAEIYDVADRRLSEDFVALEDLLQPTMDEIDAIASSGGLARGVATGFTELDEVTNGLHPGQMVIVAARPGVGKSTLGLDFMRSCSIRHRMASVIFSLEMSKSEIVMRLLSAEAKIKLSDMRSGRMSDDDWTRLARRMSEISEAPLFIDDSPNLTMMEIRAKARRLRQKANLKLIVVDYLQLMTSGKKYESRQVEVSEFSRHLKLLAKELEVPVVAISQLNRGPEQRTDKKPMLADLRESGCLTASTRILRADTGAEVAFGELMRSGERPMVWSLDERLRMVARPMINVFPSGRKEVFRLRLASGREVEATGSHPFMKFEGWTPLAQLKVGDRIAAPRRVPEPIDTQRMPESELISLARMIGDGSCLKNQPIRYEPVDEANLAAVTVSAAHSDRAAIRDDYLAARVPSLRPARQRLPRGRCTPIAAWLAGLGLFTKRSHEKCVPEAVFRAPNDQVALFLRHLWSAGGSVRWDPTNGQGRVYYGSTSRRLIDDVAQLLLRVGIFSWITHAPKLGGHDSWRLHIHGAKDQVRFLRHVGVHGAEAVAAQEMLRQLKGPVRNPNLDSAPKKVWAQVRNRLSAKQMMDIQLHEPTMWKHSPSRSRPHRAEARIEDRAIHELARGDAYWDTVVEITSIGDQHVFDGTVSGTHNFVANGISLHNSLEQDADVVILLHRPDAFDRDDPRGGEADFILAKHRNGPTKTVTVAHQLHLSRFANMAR

[32] = biological target: Melanocortin receptor 4 (Homo sapiens, UniProt P32245); test: inhibitors of MC4R cAMP signaling – cell-based, TR-FRET, biased antagonists, dose response (AID 602298); assay type: functional;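 further: antagonist potency against agonist-stimulated cAMP production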
[33] = biological target: T3, Protein RecA (Mycobacterium tuberculosis, UniProt P9WHJ3); test: Fluorescence Cell-Free Homogeneous Dose Retest to Identify Inhibitors of RecA-Intein Splicing Activity. [Related pubchem assays (depositor defined):AID2097, AID2223, AID489010, AID492950]; assay type: functional
T3 sequence (P9WHJ3 whole entry): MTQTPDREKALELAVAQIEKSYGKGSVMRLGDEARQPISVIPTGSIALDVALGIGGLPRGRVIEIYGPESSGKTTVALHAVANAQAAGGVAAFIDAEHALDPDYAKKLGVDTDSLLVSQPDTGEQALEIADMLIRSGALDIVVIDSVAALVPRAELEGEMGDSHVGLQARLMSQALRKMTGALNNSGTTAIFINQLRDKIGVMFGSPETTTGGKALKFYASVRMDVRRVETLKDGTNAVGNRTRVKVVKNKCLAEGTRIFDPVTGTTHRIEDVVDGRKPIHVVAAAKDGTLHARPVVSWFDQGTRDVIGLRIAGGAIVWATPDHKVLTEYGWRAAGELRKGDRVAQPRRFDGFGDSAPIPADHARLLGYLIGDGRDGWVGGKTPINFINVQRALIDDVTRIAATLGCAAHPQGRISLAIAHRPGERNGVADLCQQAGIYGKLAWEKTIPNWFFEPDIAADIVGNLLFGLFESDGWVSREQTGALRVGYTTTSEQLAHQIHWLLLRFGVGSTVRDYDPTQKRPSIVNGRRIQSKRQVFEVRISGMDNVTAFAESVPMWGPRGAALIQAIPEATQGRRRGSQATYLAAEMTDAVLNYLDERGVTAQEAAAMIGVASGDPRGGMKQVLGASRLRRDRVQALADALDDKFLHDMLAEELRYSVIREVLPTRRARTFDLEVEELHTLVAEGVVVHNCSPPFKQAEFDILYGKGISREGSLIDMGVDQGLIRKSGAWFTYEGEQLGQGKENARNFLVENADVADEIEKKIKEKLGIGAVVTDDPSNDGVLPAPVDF

[34] = non-specific 3'UTR reporter inhibition in Clone20-Shn3RL – cell-based, Renilla luciferase, cherry-picked, counter-screen for Shn3 inhibitor project, dose response (AID 624133); assay type: functional
[35] = decrease of insulin promoter-GFP reporter – imaging, high-content screening, mouse beta cells (AID 1628); assay type: functional; settings: MIN6
[36] = Trypanosoma cruzi growth suppression in host cells – NIH3T3 host cells, beta-gal luminescence, confirmation (AID 2044); assay type: functional, cell-based;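 further: intracellular parasites grown in NIH/3T3 mouse fibroblasts as host cells; luminescent beta-galactosidase reporter signal from transgenic T. cruzi replicating inside host cells; inhibitors lower the luminescence signal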
[37] = NIH3T3 cell viability loss – ATP luminescence, mouse fibroblasts, counter-screen, dose response (AID 2010); assay type: functional, cell-based;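 further: cells exposed to compound for about 90 hours before reading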
[38] = loss of viability in HepG2 cells – cell-based, CellTiter-Glo, cherry-picked, cytotoxicity control for Shn3 inhibitor project, dose response (AID 624134); assay type: functional
[39] = biological target: Mitogen-activated protein kinase 9 (Homo sapiens, UniProt P45984); assay type: functional;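 further: value from a kinome panel profiling assay, MAPK9 panel entry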
[40] = biological target: Mitogen-activated protein kinase 12 (Homo sapiens, UniProt P53778); assay type: functional;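 further: measured as one member of a kinome-wide kinase profiling panel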
[41] = biological target: Activin receptor type-1 (Homo sapiens, UniProt Q04771); test: Navigating the Kinome. Panel member name: ACVR1; assay type: functional
[42] = biological target: Proto-oncogene tyrosine-protein kinase Src (Homo sapiens, UniProt P12931); assay type: functional;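 further: SRC entry within a kinome-wide kinase profiling panel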
[43] = biological target: Leukocyte tyrosine kinase receptor (Homo sapiens, UniProt P29376); test: Navigating the Kinome. Panel member name: LTK; assay type: functional
[44] = biological target: Platelet-derived growth factor receptor alpha (Homo sapiens, UniProt P16234); test: Navigating the Kinome. Panel member name: PDGFRA; assay type: functional
[45] = biological target: Tyrosine-protein kinase Lck (Homo sapiens, UniProt P06239); assay type: functional;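 further: lck was assayed as one member of a kinase panel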
[46] = biological target: BDNF/NT-3 growth factors receptor (Homo sapiens, UniProt Q16620); assay type: functional;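 further: NTRK2 measured as one member of a broad kinome-wide kinase profiling panel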
Sequence of BDNF/NT-3 growth factors receptor (Q16620 whole entry): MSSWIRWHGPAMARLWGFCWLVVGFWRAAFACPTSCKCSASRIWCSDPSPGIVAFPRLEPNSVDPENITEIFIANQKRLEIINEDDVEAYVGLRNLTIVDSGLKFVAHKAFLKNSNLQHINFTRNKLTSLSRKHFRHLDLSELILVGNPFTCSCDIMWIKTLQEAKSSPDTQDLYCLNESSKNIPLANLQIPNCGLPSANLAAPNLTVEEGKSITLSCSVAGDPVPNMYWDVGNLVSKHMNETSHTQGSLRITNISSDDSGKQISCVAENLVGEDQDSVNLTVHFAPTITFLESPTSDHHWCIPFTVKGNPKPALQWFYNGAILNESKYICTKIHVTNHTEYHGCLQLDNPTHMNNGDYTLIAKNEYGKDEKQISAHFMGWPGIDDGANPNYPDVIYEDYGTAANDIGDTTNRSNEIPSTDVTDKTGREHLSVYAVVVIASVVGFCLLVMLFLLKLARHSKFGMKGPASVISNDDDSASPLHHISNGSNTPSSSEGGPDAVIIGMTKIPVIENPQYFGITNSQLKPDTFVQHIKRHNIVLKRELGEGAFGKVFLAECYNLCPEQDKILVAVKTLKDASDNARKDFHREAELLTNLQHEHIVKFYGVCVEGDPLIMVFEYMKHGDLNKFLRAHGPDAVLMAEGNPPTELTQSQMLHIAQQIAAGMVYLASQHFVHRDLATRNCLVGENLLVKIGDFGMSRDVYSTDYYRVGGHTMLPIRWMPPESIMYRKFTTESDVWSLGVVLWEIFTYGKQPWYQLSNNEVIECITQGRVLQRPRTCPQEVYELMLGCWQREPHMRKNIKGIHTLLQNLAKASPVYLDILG

Sequence of Platelet-derived growth factor receptor beta (P09619 whole entry): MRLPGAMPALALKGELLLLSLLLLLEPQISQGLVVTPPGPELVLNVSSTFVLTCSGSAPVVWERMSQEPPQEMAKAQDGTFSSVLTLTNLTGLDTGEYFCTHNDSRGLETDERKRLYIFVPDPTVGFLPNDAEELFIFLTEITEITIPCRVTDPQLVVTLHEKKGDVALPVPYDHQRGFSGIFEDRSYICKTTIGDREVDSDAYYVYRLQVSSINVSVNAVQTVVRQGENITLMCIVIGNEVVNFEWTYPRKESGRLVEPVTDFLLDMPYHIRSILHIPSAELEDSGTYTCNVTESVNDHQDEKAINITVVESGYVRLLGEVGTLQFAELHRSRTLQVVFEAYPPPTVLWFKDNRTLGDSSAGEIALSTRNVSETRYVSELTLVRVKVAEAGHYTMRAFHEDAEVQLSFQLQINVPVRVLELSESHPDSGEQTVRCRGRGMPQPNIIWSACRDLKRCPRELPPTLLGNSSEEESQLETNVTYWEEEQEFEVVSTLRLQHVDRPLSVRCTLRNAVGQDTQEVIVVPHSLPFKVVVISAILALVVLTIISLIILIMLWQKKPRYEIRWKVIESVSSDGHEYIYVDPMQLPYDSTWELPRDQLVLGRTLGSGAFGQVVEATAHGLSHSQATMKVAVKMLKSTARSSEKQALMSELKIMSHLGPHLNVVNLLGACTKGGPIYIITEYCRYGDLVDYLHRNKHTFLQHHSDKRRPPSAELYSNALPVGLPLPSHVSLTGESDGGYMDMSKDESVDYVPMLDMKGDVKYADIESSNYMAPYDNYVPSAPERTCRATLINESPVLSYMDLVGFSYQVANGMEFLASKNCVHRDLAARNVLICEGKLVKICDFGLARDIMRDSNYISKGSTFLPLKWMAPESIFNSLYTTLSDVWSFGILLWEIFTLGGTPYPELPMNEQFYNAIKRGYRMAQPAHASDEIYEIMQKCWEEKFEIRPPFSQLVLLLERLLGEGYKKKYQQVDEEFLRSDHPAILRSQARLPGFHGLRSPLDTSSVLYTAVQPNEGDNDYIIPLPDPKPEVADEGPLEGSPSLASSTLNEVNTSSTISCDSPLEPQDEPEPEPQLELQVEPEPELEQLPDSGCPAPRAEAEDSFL
Sequence of Serine/threonine-protein kinase PLK1 (P53350 whole entry): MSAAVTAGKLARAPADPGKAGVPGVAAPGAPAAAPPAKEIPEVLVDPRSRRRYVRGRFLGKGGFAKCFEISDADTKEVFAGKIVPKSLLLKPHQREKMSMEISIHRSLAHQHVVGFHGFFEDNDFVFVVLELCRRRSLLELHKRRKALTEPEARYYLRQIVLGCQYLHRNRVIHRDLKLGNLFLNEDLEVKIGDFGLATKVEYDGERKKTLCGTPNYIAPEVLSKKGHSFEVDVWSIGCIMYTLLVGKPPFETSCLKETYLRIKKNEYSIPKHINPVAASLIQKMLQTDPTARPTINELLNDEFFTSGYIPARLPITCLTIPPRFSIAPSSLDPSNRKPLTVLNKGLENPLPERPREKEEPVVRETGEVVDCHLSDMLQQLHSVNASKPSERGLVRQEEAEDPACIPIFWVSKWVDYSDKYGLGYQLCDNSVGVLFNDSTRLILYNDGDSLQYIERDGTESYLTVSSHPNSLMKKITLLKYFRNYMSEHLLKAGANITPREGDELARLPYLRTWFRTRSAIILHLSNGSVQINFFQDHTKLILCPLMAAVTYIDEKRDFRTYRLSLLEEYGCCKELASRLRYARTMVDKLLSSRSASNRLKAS
Sequence of Serine/threonine-protein kinase Chk1 (O14757 whole entry): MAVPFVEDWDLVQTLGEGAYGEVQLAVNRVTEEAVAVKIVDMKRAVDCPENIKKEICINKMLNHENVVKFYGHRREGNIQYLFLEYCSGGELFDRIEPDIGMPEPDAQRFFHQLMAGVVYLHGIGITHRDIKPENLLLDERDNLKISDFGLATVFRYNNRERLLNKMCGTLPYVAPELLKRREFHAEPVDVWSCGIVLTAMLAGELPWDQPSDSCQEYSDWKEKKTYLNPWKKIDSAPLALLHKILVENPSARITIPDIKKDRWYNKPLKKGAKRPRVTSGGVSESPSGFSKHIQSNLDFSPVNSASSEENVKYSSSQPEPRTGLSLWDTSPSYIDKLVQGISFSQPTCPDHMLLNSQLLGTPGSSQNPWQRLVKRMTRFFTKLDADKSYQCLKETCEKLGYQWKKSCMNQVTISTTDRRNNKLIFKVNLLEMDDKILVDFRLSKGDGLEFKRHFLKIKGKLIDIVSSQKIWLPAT
Sequence of RAC-alpha serine/threonine-protein kinase (P31749 whole entry): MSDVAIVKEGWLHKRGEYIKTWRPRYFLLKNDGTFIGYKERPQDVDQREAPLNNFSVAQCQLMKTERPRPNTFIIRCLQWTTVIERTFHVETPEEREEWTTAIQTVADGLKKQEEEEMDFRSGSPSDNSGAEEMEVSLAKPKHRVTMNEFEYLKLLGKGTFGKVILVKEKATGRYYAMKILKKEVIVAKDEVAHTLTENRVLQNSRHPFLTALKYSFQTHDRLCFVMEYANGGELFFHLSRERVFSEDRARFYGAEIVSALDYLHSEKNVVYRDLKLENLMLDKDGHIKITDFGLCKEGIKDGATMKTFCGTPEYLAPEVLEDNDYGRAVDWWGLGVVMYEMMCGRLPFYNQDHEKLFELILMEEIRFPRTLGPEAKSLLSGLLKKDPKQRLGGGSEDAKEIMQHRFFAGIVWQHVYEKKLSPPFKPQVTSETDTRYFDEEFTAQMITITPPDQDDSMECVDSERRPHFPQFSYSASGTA
Sequence of Mitogen-activated protein kinase 12 (P53778 whole entry): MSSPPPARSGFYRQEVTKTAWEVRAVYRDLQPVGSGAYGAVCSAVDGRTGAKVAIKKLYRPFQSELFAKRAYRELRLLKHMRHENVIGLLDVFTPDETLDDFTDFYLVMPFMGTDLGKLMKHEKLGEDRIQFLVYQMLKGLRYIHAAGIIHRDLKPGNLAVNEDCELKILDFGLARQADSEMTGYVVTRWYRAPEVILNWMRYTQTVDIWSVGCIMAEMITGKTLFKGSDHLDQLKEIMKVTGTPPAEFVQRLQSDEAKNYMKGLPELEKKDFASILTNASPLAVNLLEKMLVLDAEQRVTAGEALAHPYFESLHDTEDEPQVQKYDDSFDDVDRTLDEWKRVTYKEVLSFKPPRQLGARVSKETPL
Sequence of RAC-gamma serine/threonine-protein kinase (Q9Y243 whole entry): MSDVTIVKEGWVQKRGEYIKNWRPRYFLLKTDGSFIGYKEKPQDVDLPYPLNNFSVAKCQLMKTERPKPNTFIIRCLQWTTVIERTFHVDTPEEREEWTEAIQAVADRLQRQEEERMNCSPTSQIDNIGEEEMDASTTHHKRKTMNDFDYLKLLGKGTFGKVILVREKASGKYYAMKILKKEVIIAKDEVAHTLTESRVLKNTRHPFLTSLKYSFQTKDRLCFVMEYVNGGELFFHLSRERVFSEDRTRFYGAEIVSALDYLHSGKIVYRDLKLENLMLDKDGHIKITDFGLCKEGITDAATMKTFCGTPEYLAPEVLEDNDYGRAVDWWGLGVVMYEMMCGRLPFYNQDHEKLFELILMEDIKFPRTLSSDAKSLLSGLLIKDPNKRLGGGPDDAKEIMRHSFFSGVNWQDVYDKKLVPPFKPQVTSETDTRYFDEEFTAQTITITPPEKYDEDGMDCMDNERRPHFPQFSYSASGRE
Sequence of Protein kinase C theta type (Q04759 whole entry): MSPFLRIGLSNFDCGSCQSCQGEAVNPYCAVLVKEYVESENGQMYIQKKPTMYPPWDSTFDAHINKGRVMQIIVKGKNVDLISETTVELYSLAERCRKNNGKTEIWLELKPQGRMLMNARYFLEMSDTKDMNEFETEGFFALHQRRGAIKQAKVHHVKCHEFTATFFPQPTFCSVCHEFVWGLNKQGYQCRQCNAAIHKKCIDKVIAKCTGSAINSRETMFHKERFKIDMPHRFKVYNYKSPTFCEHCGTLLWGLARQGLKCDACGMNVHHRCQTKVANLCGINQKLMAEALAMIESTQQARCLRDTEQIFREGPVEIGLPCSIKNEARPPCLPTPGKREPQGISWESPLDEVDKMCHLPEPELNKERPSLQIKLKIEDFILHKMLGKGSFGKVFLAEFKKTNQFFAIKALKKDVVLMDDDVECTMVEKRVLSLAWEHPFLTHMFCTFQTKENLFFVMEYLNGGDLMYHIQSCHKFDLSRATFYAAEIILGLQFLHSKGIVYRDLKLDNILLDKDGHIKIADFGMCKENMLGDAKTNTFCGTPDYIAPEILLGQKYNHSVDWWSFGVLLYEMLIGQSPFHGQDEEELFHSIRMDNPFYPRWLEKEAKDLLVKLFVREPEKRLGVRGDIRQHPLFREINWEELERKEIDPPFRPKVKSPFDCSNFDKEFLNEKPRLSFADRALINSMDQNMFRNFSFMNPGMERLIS

O=C(Nc1ccccc1)Nc1ccccn1
Ki [1]: > 63.1 µM (inactive)
Ki [2]: > 79.4 µM (inactive)
Ki [3]: > 100 µM (inactive)
Ki [4]: > 100 µM (inactive)
Ki [5]: > 100 µM (inactive)
Ki [6]: > 79.4 µM (inactive)
Ki [7]: > 100 µM (inactive)
Ki [8]: > 50.1 µM (inactive)
Ki [9]: > 39.8 µM (inactive)
Ki [10]: > 50.1 µM (inactive)
Ki [11]: 79.4 µM (active)
Ki [12]: > 79.4 µM (inactive)
Ki [13]: > 63.1 µM (inactive)
Ki [14]: > 50.1 µM (inactive)
Ki [15]: > 79.4 µM (inactive)
Ki [16]: 50.1 µM (active)
Ki [17]: 3.16 µM (active)
Ki [18]: 79.4 µM (active)
Ki [19]: > 79.4 µM (inactive)
Ki [20]: > 79.4 µM (inactive)
Ki [21]: > 63.1 µM (inactive)

CC(C)(C)c1cc(C(c2cccnc2)N2CCN(CCO)CC2)cc(C(C)(C)C)c1O (stereo not drawn)
IC50 [22]: > 66.6 µM (inactive)
IC50 [23]: 3.96 µM (active)
IC50 [24]: > 64.6 µM (inactive)
AC50 [25]: 24 µM (active)
EC50 [26]: 7.35 µM (inactive)
IC50 [27]: 35.9 µM (inactive)
AC50 [28]: 1.7 µM (active)
EC50 [29]: 3.77 µM (active)
EC50 [30]: 3.45 µM (active)
AC50 [31]: 20 µM (active)
IC50 [32]: 25.1 µM (inactive)
EC50 [33]: 17.3 µM (active)
AC50 [34]: 7.04 µM (active)
IC50 [35]: 4.68 µM (active)
EC50 [36]: 488 nM (active)
EC50 [37]: 4.59 µM (active)
AC50 [38]: 25.2 µM (active)

CN(C)CCCN(C)C(=O)C1Cc2[nH]cnc2C2(CCCCC2)N1 (stereo not drawn)
Ki [39]: 2.51 µM (active)
Ki [40]: 3.16 µM (active)

COc1cc(Nc2ncc3c(n2)-c2ccc(Cl)cc2C(c2c(F)cccc2OC)=NC3)ccc1C(=O)O [ALISERTIB]
Ki [41]: > 3.98 µM (inactive)
Ki [42]: 316 nM (active)
Ki [6]: > 1 µM (inactive)
Ki [10]: 0.631 µM (active)
Ki [43]: 398 nM (active)
Ki [44]: > 1 µM (inactive)
Ki [45]: 316 nM (active)
Ki [46]: 1 µM (active)
